From US9675073B2, “Insecticidal compounds based on N-arylsulfanylmethylcarboxamidearylthiosulfonamides derivatives” (Syngenta Participations AG, priority 2012, dated 2017)
Read-outs that look alike come from different tables or passages of the source.

Assays:
Assay type in all cases: in vivo
[1] = test system: Heliothis virescens (Tobacco Budworm); assay: Heliothis virescens eggs on artificial diet; conditions: 120 h, read-out: egg or larval mortality
Procedure: Heliothis virescens (Tobacco Budworm):
Eggs (0-24 h old) were placed in 24-well microtiter plates on artificial diet and treated with aqueous test solutions prepared from 10,000 ppm DMSO stock solutions by pipetting. The samples were assessed for egg and larval mortality 5 days after infestation.

[2] = test system: Spodoptera littoralis (Egyptian Cotton Leaf Worm); assay: Spodoptera littoralis cotton leaf disc spray test, L1 larvae; conditions: foliar, 72 h
Procedure: Spodoptera littoralis (Egyptian Cotton Leaf Worm)
(§1) Cotton leaf discs were placed on agar in 24-well microtiter plates and sprayed with aqueous test solutions prepared from 10,000 ppm DMSO stock solutions. After drying the leaf discs were infested with five L1 larvae. The samples were assessed for mortality 3 days after infestation.

[3] = test system: Plutella xylostella (Diamond Back Moth); assay: Plutella xylostella L2 larvae on treated artificial diet; conditions: 120 h
Procedure: 24-well microtiter plates with artificial diet were treated with aqueous test solutions prepared from 10,000 ppm DMSO stock solutions by pipetting. After drying, the plates were infested with L2 larvae (10 to 15 per well). The samples were assessed for mortality 5 days after infestation.

[4] = test system: Diabrotica balteata, (Corn Root Worm); assay: Diabrotica balteata L2 larvae on sprayed maize sprouts; conditions: 96 h, application rate 200 ppm, 4 days after infestation
Procedure: Maize sprouts, placed on an agar layer in 24-well microtiter plates were treated with aqueous test solutions prepared from 10,000 ppm DMSO stock solutions by spraying. After drying, the plates were infested with L2 larvae (6 to 10 per well). The samples were assessed for mortality 4 days after infestation.

[5] = test system: Thrips tabaci (Onion Thrips); assay: Thrips tabaci sunflower leaf disc spray test; conditions: foliar, 144 h, application rate 200 ppm, mixed ages on sunflower leaf discs, 6 days after infestation
Procedure: Thrips tabaci (Onion Thrips):
as §1, with “Sunflower” for “Cotton”, “a thrips population of mixed ages.” for “five L1 larvae.”, “6” for “3”

[6] = test system: Myzus persicae (Green Peach Aphid); assay: Myzus persicae sucrose solution feeding test through Parafilm; conditions: 120 h, test rate 12 ppm, 5 days after infestation
Procedure: Myzus persicae (Green Peach Aphid)
Test compounds from 10,000 ppm DMSO stock solutions were applied by pipette into 24-well microtiter plates and mixed with sucrose solution. The plates were closed with a stretched Parafilm. A plastic stencil with 24 holes was placed onto the plate and infested pea seedlings were placed directly on the Parafilm. The infested plate was closed with a gel blotting paper and another plastic stencil and then turned upside down. The samples were assessed for mortality 5 days after infestation.

[7] = test system: Diabrotica balteata (Corn Root Worm); assay: Diabrotica balteata L2 larvae on treated artificial diet; conditions: 120 h, application rate 200 ppm, 5 days after infestation
Procedure: 24-well microtiter plates with artificial diet were treated with aqueous test solutions prepared from 10,000 ppm DMSO stock solutions by pipetting. After drying, the plates were infested with L2 larvae (6 to 10 per well). The samples were assessed for mortality 5 days after infestation.

[8] = test system: Tetranychus urticae (Two-Spotted Spider Mite); assay: Tetranychus urticae bean leaf disc spray test; conditions: foliar, 192 h, application rate 200 ppm, mixed population (mobile stages) on bean leaf discs, 8 days after infestation
Procedure: Tetranychus urticae (Two-Spotted Spider Mite):
Bean leaf discs on agar in 24-well microtiter plates were sprayed with aqueous test solutions prepared from 10,000 ppm DMSO stock solutions. After drying the leaf discs were infested with a mite population of mixed ages. The samples were assessed for mortality on mixed population (mobile stages) 8 days after infestation.

[9] = application rate 200 ppm, eggs on artificial diet, 5 days after infestation

CC1(C(=O)NCSc2ccc(C3=NOC(c4cc(Cl)cc(Cl)c4)(C(F)(F)F)C3)cc2Br)CC1 (stereo not shown) [Compound A4, N-[[2-bromo-4-[5-(3,5-dichlorophenyl)-5-(trifluoromethyl)-4H-isoxazol-3-yl]phenyl]sulfanylmethyl]-1-methyl-cyclopropanecarboxamide]
≥ 80%: mortality at 200 ppm [1]

CC(=O)NCSc1ccc(C2=CSC(c3cc(Cl)cc(Cl)c3)(C(F)(F)F)C2)cc1Br (stereo not shown) [Compound C1, N-[[2-bromo-4-[2-(3,5-dichlorophenyl)-2-(trifluoromethyl)-3H-thiophen-4-yl]phenyl]sulfanylmethyl]acetamide]
≥ 80%: mortality at 200 ppm ([2]; application rate 200 ppm, L1 larvae on cotton leaf discs, 3 days after infestation, read-out: mortality) | mortality at 200 ppm ([3]; application rate 200 ppm, L2 larvae on artificial diet, 5 days after infestation, read-out: mortality) | mortality at 200 ppm [4] | mortality at 200 ppm [1, 9]

CC(C)C(=O)NCSc1ccc(C2=CSC(c3cc(Cl)cc(Cl)c3)(C(F)(F)F)C2)cc1Br (stereo not shown) [Compound C2, N-[[2-bromo-4-[2-(3,5-dichlorophenyl)-2-(trifluoromethyl)-3H-thiophen-4-yl]phenyl]sulfanylmethyl]-2-methyl-propanamide]
≥ 80%: mortality at 200 ppm [1, 9]

O=C(NCSc1ccc(C2=NOC(c3cc(Cl)cc(Cl)c3)(C(F)(F)F)C2)cc1Br)C1CC1 (stereo not shown) [Compound A3, N-[[2-bromo-4-[5-(3,5-dichlorophenyl)-5-(trifluoromethyl)-4H-isoxazol-3-yl]phenyl]sulfanylmethyl]cyclopropanecarboxamide]
≥ 80%: mortality at 200 ppm [5] | mortality at 12 ppm [6] | mortality at 200 ppm [7] | mortality at 200 ppm [2] | mortality at 200 ppm [3] | mortality at 200 ppm [8] | mortality at 200 ppm [1]

O=C(NCSc1ccc(C2=NOC(c3cc(Cl)cc(Cl)c3)(C(F)(F)F)C2)cc1Br)c1ccccc1 (stereo not shown) [Compound A2, N-[[2-bromo-4-[5-(3,5-dichlorophenyl)-5-(trifluoromethyl)-4H-isoxazol-3-yl]phenyl]sulfanylmethyl]benzamide]
≥ 80%: mortality at 200 ppm [3] | mortality at 200 ppm [1]

CC(=O)NCSc1ccc(C2=NOC(c3cc(Cl)cc(Cl)c3)(C(F)(F)F)C2)cc1Br (stereo not shown) [Compound A1, N-[[2-bromo-4-[5-(3,5-dichlorophenyl)-5-(trifluoromethyl)-4H-isoxazol-3-yl]phenyl]sulfanylmethyl]acetamide]
≥ 80%: mortality at 200 ppm [5] | mortality at 12 ppm [6] | mortality at 200 ppm [7] | mortality at 200 ppm [2] | mortality at 200 ppm [3] | mortality at 200 ppm [8] | mortality at 200 ppm [1]
